# Results taken from PubChem BioAssay (NCI).
#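 Results reflect a 48-hour exposure of cells in 96-well plates to compound at five concentrations. Abbreviation: GI50, concentration required for 50% inhibition of growth. Definition used: TGI = concentration required for complete inhibition of growth.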
# Tests used:
# Test in all cases: growth of human tumour cells (NCI), 48 h
# [1] = test system: SR leukemia
# [2] = test system: CAKI-1 renal
# [3] = test system: PC-3 prostate
# [4] = test system: CCRF-CEM leukemia
# [5] = test system: MALME-3M melanoma
# [6] = test system: HOP-62 NSCLC
# [7] = test system: HOP-92 NSCLC
# [8] = test system: MDA-MB-435
# [9] = test system: OVCAR-3 ovarian
# [10] = test system: UACC-62 melanoma
# [11] = test system: SF-295 CNS
# [12] = test system: IGROV1 ovarian
# [13] = test system: HS 578T breast
# [14] = test system: SW-620 colon
# [15] = test system: OVCAR-4 ovarian
# [16] = test system: HL-60(TB) leukemia
# [17] = test system: M14 melanoma
# [18] = test system: 786-0 renal
# [19] = test system: SF-268 CNS
# [20] = test system: KM12 colon
# [21] = test system: SK-MEL-2 melanoma
# [22] = test system: ACHN renal
# [23] = test system: MDA-MB-231 breast
# [24] = test system: UACC-257 melanoma
# [25] = test system: UO-31 renal
# [26] = test system: HT29 colon
# [27] = test system: COLO 205 colon
# [28] = test system: HCT-15 colon
# [29] = test system: SK-OV-3 ovarian
# [30] = test system: EKVX NSCLC
# [31] = test system: OVCAR-8 ovarian
# [32] = test system: NCI/ADR-RES ovarian
# [33] = test system: SK-MEL-28 melanoma
# [34] = test system: BT-549 breast
# [35] = test system: SF-539 CNS
# [36] = test system: RXF 393 renal
# [37] = test system: NCI-H460 lung
# [38] = test system: K-562 leukemia
# [39] = test system: OVCAR-5 ovarian
# [40] = test system: RPMI-8226 leukemia
# [41] = test system: SK-MEL-5 melanoma
# [42] = test system: HCT-116 colon
# [43] = test system: TK-10 renal
# [44] = test system: MOLT-4 leukemia
# [45] = test system: MCF7 breast
# [46] = test system: A549 NSCLC
# [47] = test system: NCI-H226 lung
# [48] = test system: U251 CNS
# [49] = test system: HCC-2998 colon
# [50] = test system: NCI-H23 lung
# [51] = test system: NCI-H522 lung
# [52] = test system: SNB-19 CNS
# [53] = test system: SNB-75 CNS
# [54] = test system: DU-145 prostate
# [55] = test system: SN12C renal
# [56] = test system: A498 renal
# [57] = test system: LOX IMVI melanoma
smiles,measurement,setting,value
Cc1ccc(O)c(N=Nc2c(O)cc(S(=O)(=O)O)c3ccccc23)c1,TGI,[1],> 100 µM
same,TGI,[2],> 100 µM
same,TGI,[3],> 100 µM
same,TGI,[4],> 100 µM
same,TGI,[5],> 100 µM
same,TGI,[6],> 100 µM
same,TGI,[7],> 100 µM
same,TGI,[8],> 100 µM
same,TGI,[9],76.2 µM
same,TGI,[10],> 100 µM
same,TGI,[11],> 100 µM
same,TGI,[12],> 100 µM
same,TGI,[13],> 100 µM
same,TGI,[14],> 100 µM
same,TGI,[15],> 100 µM
same,TGI,[16],64 µM
same,TGI,[17],> 100 µM
same,TGI,[18],> 100 µM
same,TGI,[19],> 100 µM
same,TGI,[20],> 100 µM
same,TGI,[21],> 100 µM
same,TGI,[22],> 100 µM
same,TGI,[23],> 100 µM
same,TGI,[24],> 100 µM
same,TGI,[25],79.6 µM
same,TGI,[26],> 100 µM
same,TGI,[27],> 100 µM
same,TGI,[28],> 100 µM
same,TGI,[29],> 100 µM
same,TGI,[30],> 100 µM
same,TGI,[31],> 100 µM
same,TGI,[32],86.5 µM
same,TGI,[33],> 100 µM
same,TGI,[34],> 100 µM
same,TGI,[35],> 100 µM
same,TGI,[36],> 100 µM
same,TGI,[37],> 100 µM
same,TGI,[38],> 100 µM
same,TGI,[39],> 100 µM
same,TGI,[40],> 100 µM
same,TGI,[41],77.6 µM
same,TGI,[42],62.5 µM
same,TGI,[43],> 100 µM
same,TGI,[44],95.3 µM
same,TGI,[45],> 100 µM
same,TGI,[46],> 100 µM
same,TGI,[47],> 100 µM
same,TGI,[48],> 100 µM
same,TGI,[49],> 100 µM
O=S(=O)(O)c1ccc(N=Nc2ccc(N=Nc3c(O)ccc4cc(S(=O)(=O)O)ccc34)cc2)cc1,TGI,[1],> 100 µM
same,TGI,[2],> 100 µM
same,TGI,[3],> 100 µM
same,TGI,[4],> 100 µM
same,TGI,[5],> 100 µM
same,TGI,[6],> 100 µM
same,TGI,[7],> 100 µM
same,TGI,[8],> 100 µM
same,TGI,[9],> 100 µM
same,TGI,[10],> 100 µM
same,TGI,[11],> 100 µM
same,TGI,[12],> 100 µM
same,TGI,[13],> 100 µM
same,TGI,[14],> 100 µM
same,TGI,[16],> 100 µM
same,TGI,[17],> 100 µM
same,TGI,[18],> 100 µM
same,TGI,[50],> 100 µM
same,TGI,[19],> 100 µM
same,TGI,[20],> 100 µM
same,TGI,[21],> 100 µM
same,TGI,[22],> 100 µM
same,TGI,[23],> 100 µM
same,TGI,[24],> 100 µM
same,TGI,[25],> 100 µM
same,TGI,[26],> 100 µM
same,TGI,[27],> 100 µM
same,TGI,[28],> 100 µM
same,TGI,[51],> 100 µM
same,TGI,[29],> 100 µM
same,TGI,[30],> 100 µM
same,TGI,[31],> 100 µM
same,TGI,[32],> 100 µM
same,TGI,[33],> 100 µM
same,TGI,[34],> 100 µM
same,TGI,[35],> 100 µM
same,TGI,[36],> 100 µM
same,TGI,[52],> 100 µM
same,TGI,[37],> 100 µM
same,TGI,[53],> 100 µM
same,TGI,[38],> 100 µM
same,TGI,[39],> 100 µM
same,TGI,[40],> 100 µM
same,TGI,[41],> 100 µM
same,TGI,[42],> 100 µM
same,TGI,[43],> 100 µM
same,TGI,[44],> 100 µM
same,TGI,[45],> 100 µM
same,TGI,[46],> 100 µM
same,TGI,[47],> 100 µM
same,TGI,[48],> 100 µM
same,TGI,[49],> 100 µM
CCOC(=O)c1cc(C(=O)c2ccc(Cl)cc2)n2ccc(-c3cc[n+](CC(=O)c4ccc(OC)cc4)cc3)cc12,GI50,[5],2.01 µM
same,TGI,[5],3.98 µM
same,GI50,[7],1.49 µM
same,TGI,[7],3.17 µM
same,GI50,[8],1.86 µM
same,TGI,[8],3.67 µM
same,GI50,[9],1.88 µM
same,TGI,[9],3.65 µM
same,GI50,[10],1.82 µM
same,TGI,[10],3.52 µM
same,GI50,[11],1.7 µM
same,TGI,[11],3.32 µM
same,GI50,[13],1.81 µM
same,TGI,[13],4.38 µM
same,GI50,[14],1.38 µM
same,TGI,[14],3.27 µM
same,GI50,[15],1.68 µM
same,TGI,[15],3.4 µM
same,GI50,[54],1.69 µM
same,TGI,[54],3.2 µM
same,GI50,[50],1.84 µM
same,TGI,[50],3.74 µM
same,GI50,[55],1.83 µM
same,TGI,[55],3.59 µM
same,GI50,[21],2.04 µM
same,TGI,[21],4.36 µM
same,GI50,[22],1.78 µM
same,TGI,[22],3.31 µM
same,GI50,[23],1.59 µM
same,TGI,[23],3.25 µM
same,GI50,[24],2.21 µM
same,TGI,[24],4.53 µM
same,GI50,[25],1.47 µM
same,TGI,[25],2.99 µM
same,GI50,[28],1.64 µM
same,TGI,[28],3.6 µM
same,GI50,[51],1.93 µM
same,TGI,[51],3.89 µM
same,GI50,[29],2.01 µM
same,TGI,[29],3.62 µM
same,GI50,[30],1.69 µM
same,TGI,[30],3.5 µM
same,GI50,[56],1.6 µM
same,TGI,[56],3.17 µM
same,GI50,[32],3.16 µM
same,TGI,[32],33 µM
same,GI50,[33],1.89 µM
same,TGI,[33],3.74 µM
same,GI50,[35],1.68 µM
same,TGI,[35],3.27 µM
same,GI50,[36],1.4 µM
same,TGI,[36],3.03 µM
same,GI50,[52],1.83 µM
same,TGI,[52],3.73 µM
same,GI50,[53],1.47 µM
same,TGI,[53],3.09 µM
same,GI50,[39],1.82 µM
same,TGI,[39],3.69 µM
same,GI50,[41],1.77 µM
same,TGI,[41],3.42 µM
same,GI50,[43],1.76 µM
same,TGI,[43],3.37 µM
same,GI50,[45],1.4 µM
same,TGI,[45],3.36 µM
same,GI50,[48],1.7 µM
same,TGI,[48],3.54 µM
Cn1cc(NC(=O)c2cc(NC(=O)c3cc(NC=O)cn3C)cn2C)cc1C(=O)NCCC(=N)N,TGI,[2],> 100 µM
same,TGI,[3],> 100 µM
same,TGI,[4],> 100 µM
same,TGI,[5],> 100 µM
same,TGI,[6],> 100 µM
same,TGI,[8],> 100 µM
same,TGI,[9],> 100 µM
same,TGI,[10],> 100 µM
same,TGI,[11],> 100 µM
same,TGI,[12],> 100 µM
same,TGI,[13],> 100 µM
same,TGI,[14],> 100 µM
same,TGI,[16],> 100 µM
same,TGI,[17],> 100 µM
same,TGI,[54],> 100 µM
same,TGI,[18],> 100 µM
same,TGI,[57],> 100 µM
same,TGI,[50],> 100 µM
same,TGI,[19],> 100 µM
same,TGI,[20],> 100 µM
same,TGI,[55],> 100 µM
same,TGI,[21],> 100 µM
same,TGI,[22],> 100 µM
same,TGI,[23],> 100 µM
same,TGI,[24],> 100 µM
same,TGI,[25],> 100 µM
same,TGI,[26],> 100 µM
same,TGI,[27],> 100 µM
same,TGI,[28],> 100 µM
same,TGI,[29],> 100 µM
same,TGI,[30],> 100 µM
same,TGI,[31],> 100 µM
same,TGI,[56],> 100 µM
same,TGI,[32],> 100 µM
same,TGI,[33],> 100 µM
same,TGI,[34],> 100 µM
same,TGI,[35],> 100 µM
same,TGI,[36],> 100 µM
same,TGI,[52],> 100 µM
same,TGI,[37],> 100 µM
same,TGI,[53],> 100 µM
same,TGI,[38],> 100 µM
same,TGI,[39],> 100 µM
same,TGI,[40],> 100 µM
same,TGI,[41],> 100 µM
same,TGI,[42],> 100 µM
same,TGI,[43],> 100 µM
same,TGI,[44],> 100 µM
same,TGI,[45],> 100 µM
same,TGI,[47],> 100 µM
same,TGI,[48],> 100 µM
